Assay results taken from patent publication US9695155B2, “Herbicidal substituted pyrimidinyloxy benzene compounds” (E. I. DU PONT DE NEMOURS AND COMPANY, priority 2013, dated 2017).

Key:
pigweed [1] = assay: Test A preemergence; type: in vivo, Amaranthus retroflexus; conditions: 0 to 100 scale where 0 is no effect and 100 is complete control; for Pigweed plant response rating: 500 g ai/ha
How it was run: (§1)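 Pre- and postemergence greenhouse screen. Soil: loam + sand. Spray carrier: solvent mixture, non-phytotoxic, with surfactant. Post timing at 1–2 leaves, height 2–10 cm. Readout: visual injury on a 0–100 scale roughly 10 days after application, untreated plants as reference.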

pigweed [2] = assay: Test A postemergence; type: in vivo, Amaranthus retroflexus; conditions: 0 to 100 scale where 0 is no effect and 100 is complete control; for Plant response rating, Pigweed: 500 g ai/ha
How it was run: as §1

sedge, umbrella = assay: Test B flooded paddy test; type: in vivo, Cyperus difformis; conditions: Flood, 250 g ai/ha; 0 to 100 scale where 0 is no effect and 100 is complete control
How it was run: (§2)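 Post-emergence paddy-water application at the 2-leaf stage, with 3 cm flood kept for the whole test. Response was judged visually relative to controls after 13 to 15 greenhouse days, 0 indicating no effect and 100 complete control.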

Heteranthera limosa = assay: Test B flooded paddy test; type: in vivo; conditions: Flood, 250 g ai/ha, 0 to 100 scale where 0 is no effect and 100 is complete control
How it was run: as §2

barnyardgrass [3] = assay: Test B flooded paddy test; type: in vivo, Echinochloa crus-galli; conditions: Flood, 250 g ai/ha, 0 to 100 scale where 0 is no effect and 100 is complete control
How it was run: as §2

wheat, winter = assay: Test C postemergence; type: in vivo, Triticum aestivum
How it was run: (§3)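 Rated visually on 0–100 (100 = complete control) after 13–15 days under glass. Treatments went onto freshly seeded loam/sand soil or onto emerged plants at the 1- to 4-leaf stage, using a surfactant-containing solvent formulation.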

corn = assay: Test C postemergence; type: in vivo, Zea mays
How it was run: as §3

large (Lg) crabgrass = assay: Test C postemergence; type: in vivo, Digitaria sanguinalis
How it was run: as §3

johnsongrass = assay: Test C postemergence; type: in vivo, Sorghum halepense
How it was run: as §3

barnyardgrass [4] = assay: Test C postemergence; type: in vivo, Echinochloa crus-galli
How it was run: as §3

oilseed rape = assay: Test C postemergence; type: in vivo, Brassica napus
How it was run: as §3

waterhemp = assay: Test C postemergence; type: in vivo, Amaranthus rudis
How it was run: as §3

chickweed = assay: Test C postemergence; type: in vivo, Stellaria media
How it was run: as §3

[5] = 16 g ai/ha, postemergence, 0 is no effect, 100 is complete control
[6] = 125 g ai/ha, postemergence, visual rating, scale 0 to 100 (0 no effect, 100 complete control)
[7] = Postemergence, 62 g ai/ha, scale 0 to 100 (0 no effect, 100 complete control)

Clc1cnc(Oc2cccc(Br)c2-n2cc(I)nn2)nc1 [Compound 117]
Plant response rating, Pigweed (pigweed [1]; 125 g ai/ha): 100
Pigweed plant response rating (pigweed [1]): 100
Plant response rating, Pigweed (pigweed [2]): 100
Plant response rating, Sedge, Umbrella (sedge, umbrella): 20
Plant response rating, Ducksalad (Heteranthera limosa): 40
Plant response rating, Barnyardgrass (barnyardgrass [3]): 0
Plant response rating (0 to 100), Wheat (wheat, winter; [5]): 0
Plant response rating, Wheat (wheat, winter; [6]): 20
Plant response rating, Wheat (wheat, winter; [7]): 5
Plant response rating (0 to 100), Corn (corn; [5]): 5
Plant response rating, Corn (corn; [6]): 5
Plant response rating, Corn (corn; [7]): 5
Plant response rating (0 to 100), Crabgrass, Large (large (Lg) crabgrass; [5]): 10
Plant response rating, Crabgrass, Large (large (Lg) crabgrass; [6]): 20
Plant response rating, Crabgrass, Large (large (Lg) crabgrass; [7]): 20
Plant response rating (0 to 100), Johnsongrass (johnsongrass; [5]): 0
Plant response rating, Johnsongrass (johnsongrass; [6]): 5
Plant response rating, Johnsongrass (johnsongrass; [7]): 5
Plant response rating (0 to 100), Barnyardgrass (barnyardgrass [4]; [5]): 5
Plant response rating, Barnyardgrass (barnyardgrass [4]; [6]): 10
Plant response rating, Barnyardgrass (barnyardgrass [4]; Postemergence, 31 g ai/ha, scale 0 to 100 (0 no effect, 100 complete control), 13 to 15 days): 5
Plant response rating, Barnyardgrass (barnyardgrass [4]; [7]): 5
Plant response rating (0 to 100), Oilseed Rape (oilseed rape; [5]): 25
Plant response rating, Oilseed Rape (oilseed rape; [6]): 70
Plant response rating, Oilseed Rape (oilseed rape; [7]): 60
Plant response rating (0 to 100), Waterhemp (waterhemp; [5]): 60
Plant response rating, Waterhemp (waterhemp; [6]): 90
Plant response rating, Waterhemp (waterhemp; [7]): 85
Plant response rating (0 to 100), Chickweed (chickweed; [5]): 50
Plant response rating, Chickweed (chickweed; [6]): 80
Plant response rating, Chickweed (chickweed; [7]): 70

N#Cc1cccc(Oc2ncc(Cl)cn2)c1-n1cc(SC(F)(F)F)cn1 [Compound 134, 3-[(5-chloro-2-pyrimidinyl)oxy]-2-[4-(trifluoromethylthio)-1-pyrazolyl]benzonitrile]
Pigweed plant response rating (pigweed [1]): 100
pest or weed control at 125 g/ha (pigweed [1]; Amaranthus retroflexus, pre-emergence, 125 g ai/ha, read-out: Plant response rating, Pigweed): 100%
Pigweed plant response rating (pigweed [2]; 125 g ai/ha): 100
Plant response rating, Pigweed (pigweed [2]): 100
Plant response rating, Sedge, Umbrella (sedge, umbrella): 30
pest or weed control at 250 g/ha (Heteranthera limosa; Heteranthera limosa, read-out: Plant response rating, Ducksalad): 30%
pest or weed control at 250 g/ha (barnyardgrass [3]; Echinochloa crus-galli, read-out: Plant response rating, Barnyardgrass): 0%
plant injury at 16 g/ha (wheat, winter; Triticum aestivum, post-emergence, 16 g ai/ha, postemergence, 0 is no effect, 100 is complete control, read-out: Plant response rating (0 to 100), Wheat): 0%
plant injury at 125 g/ha (wheat, winter; Triticum aestivum, post-emergence, 125 g ai/ha, postemergence, visual rating, scale 0 to 100 (0 no effect, 100 complete control), read-out: Plant response rating, Wheat): 25%
plant injury at 62 g/ha (wheat, winter; Triticum aestivum, post-emergence, Postemergence, 62 g ai/ha, scale 0 to 100 (0 no effect, 100 complete control), read-out: Plant response rating, Wheat): 5%
plant injury at 16 g/ha (corn; Zea mays, post-emergence, 16 g ai/ha, postemergence, 0 is no effect, 100 is complete control, read-out: Plant response rating (0 to 100), Corn): 5%
Corn plant response rating (crop injury, 0 = no effect, 100 = complete kill) at 125 g/ha (corn; Zea mays, post-emergence, 125 g ai/ha, postemergence, visual rating, scale 0 to 100 (0 no effect, 100 complete control)): 5%
Corn plant response rating (crop injury, 0 = no effect, 100 = complete kill) at 62 g/ha (corn; Zea mays, post-emergence, Postemergence, 62 g ai/ha, scale 0 to 100 (0 no effect, 100 complete control)): 10%
pest or weed control at 16 g/ha (large (Lg) crabgrass; Digitaria sanguinalis, post-emergence, 16 g ai/ha, postemergence, 0 is no effect, 100 is complete control, read-out: Plant response rating (0 to 100), Crabgrass, Large): 5%
pest or weed control at 125 g/ha (large (Lg) crabgrass; Digitaria sanguinalis, post-emergence, 125 g ai/ha, postemergence, visual rating, scale 0 to 100 (0 no effect, 100 complete control), read-out: Plant response rating, Crabgrass, Large): 15%
pest or weed control at 62 g/ha (large (Lg) crabgrass; Digitaria sanguinalis, post-emergence, Postemergence, 62 g ai/ha, scale 0 to 100 (0 no effect, 100 complete control), read-out: Plant response rating, Crabgrass, Large): 10%
pest or weed control at 16 g/ha (johnsongrass; Sorghum halepense, post-emergence, 16 g ai/ha, postemergence, 0 is no effect, 100 is complete control, read-out: Plant response rating (0 to 100), Johnsongrass): 5%
pest or weed control at 125 g/ha (johnsongrass; Sorghum halepense, post-emergence, 125 g ai/ha, postemergence, visual rating, scale 0 to 100 (0 no effect, 100 complete control), read-out: Plant response rating, Johnsongrass): 15%
pest or weed control at 62 g/ha (johnsongrass; Sorghum halepense, post-emergence, Postemergence, 62 g ai/ha, scale 0 to 100 (0 no effect, 100 complete control), read-out: Plant response rating, Johnsongrass): 5%
pest or weed control at 16 g/ha (barnyardgrass [4]; Echinochloa crus-galli, post-emergence, 16 g ai/ha, postemergence, 0 is no effect, 100 is complete control, read-out: Plant response rating (0 to 100), Barnyardgrass): 0%
pest or weed control at 125 g/ha (barnyardgrass [4]; Echinochloa crus-galli, post-emergence, 125 g ai/ha, postemergence, visual rating, scale 0 to 100 (0 no effect, 100 complete control), read-out: Plant response rating, Barnyardgrass): 10%
pest or weed control at 31 g/ha (barnyardgrass [4]; Echinochloa crus-galli, post-emergence, Postemergence, 31 g ai/ha, scale 0 to 100 (0 no effect, 100 complete control), 13 to 15 days, read-out: Plant response rating, Barnyardgrass): 5%
pest or weed control at 62 g/ha (barnyardgrass [4]; Echinochloa crus-galli, post-emergence, Postemergence, 62 g ai/ha, scale 0 to 100 (0 no effect, 100 complete control), read-out: Plant response rating, Barnyardgrass): 5%
plant injury at 16 g/ha (oilseed rape; Brassica napus, post-emergence, 16 g ai/ha, postemergence, 0 is no effect, 100 is complete control, read-out: Plant response rating (0 to 100), Oilseed Rape): 5%
plant injury at 125 g/ha (oilseed rape; Brassica napus, post-emergence, 125 g ai/ha, postemergence, visual rating, scale 0 to 100 (0 no effect, 100 complete control), read-out: Plant response rating, Oilseed Rape): 60%
plant injury at 62 g/ha (oilseed rape; Brassica napus, post-emergence, Postemergence, 62 g ai/ha, scale 0 to 100 (0 no effect, 100 complete control), read-out: Plant response rating, Oilseed Rape): 70%
pest or weed control at 16 g/ha (waterhemp; Amaranthus tuberculatus, post-emergence, 16 g ai/ha, postemergence, 0 is no effect, 100 is complete control, read-out: Plant response rating (0 to 100), Waterhemp): 55%
pest or weed control at 125 g/ha (waterhemp; Amaranthus tuberculatus, post-emergence, 125 g ai/ha, postemergence, visual rating, scale 0 to 100 (0 no effect, 100 complete control), read-out: Plant response rating, Waterhemp): 85%
pest or weed control at 62 g/ha (waterhemp; Amaranthus tuberculatus, post-emergence, Postemergence, 62 g ai/ha, scale 0 to 100 (0 no effect, 100 complete control), read-out: Plant response rating, Waterhemp): 60%
pest or weed control at 16 g/ha (chickweed; Stellaria media, post-emergence, 16 g ai/ha, postemergence, 0 is no effect, 100 is complete control, read-out: Plant response rating (0 to 100), Chickweed): 45%
pest or weed control at 125 g/ha (chickweed; Stellaria media, post-emergence, 125 g ai/ha, postemergence, visual rating, scale 0 to 100 (0 no effect, 100 complete control), read-out: Plant response rating, Chickweed): 80%
pest or weed control at 62 g/ha (chickweed; Stellaria media, post-emergence, Postemergence, 62 g ai/ha, scale 0 to 100 (0 no effect, 100 complete control), read-out: Plant response rating, Chickweed): 55%
